From patent publication US6770290B1, “Amphotericin B liposome preparation” (priority 1987, dated 2004)

System: Candida albicans
Assay: Therapeutic efficacy in C. albicans infected mice
Assay type: in vivo
Settings: single dose 3 days post infection; for 29 SURVIVORS (%) / surviving mice at day 29 post infection: n = 8 per group
Protocol: 360.1 mg of the spray dried powder were hydrated at 65 degrees Centigrade for 40 minutes with 9% lactose containing 10 mM succinate buffer, pH 5.62. Liposomes were prepared by sonication for four minutes with a ½ probe at 65° C. under a nitrogen atmosphere. Three successive batches of liposomes were prepared in a similar fashion. After sterile filtration, the Amphotericin B concentration was determined to be 1.73 mg/ml.
For therapeutic efficacy studies, groups of 8 mice were given intravenous inoculations of 3.5×10^5 Candida albicans yeast cells. Three days post-infection, animals were treated with a single dose of either free Amphotericin B or liposomal Amphotericin B. A severe systemic infection existed in animals which were not treated until three days post infection. Each successive group was treated with an increasing dose of medicament in order to establish a dose response relationship. Twenty-nine days after infection the study was evaluated for surviving animals. All untreated control animals had died by 8 days post-infection, with a median survival of 7 days. […] In contrast, all animals treated with 10 or 15 mg/kg of liposomal Amphotericin B were still alive […] post infection.

Compound: C[C@@H]1[C@H](O)[C@@H](C)/C=C/C=C/C=C/C=C/C=C/C=C/C=C/[C@H](O[C@@H]2O[C@H](C)[C@@H](O)[C@H](N)[C@@H]2O)C[C@@H]2O[C@](O)(C[C@@H](O)C[C@@H](O)[C@H](O)CC[C@@H](O)C[C@@H](O)CC(=O)O[C@H]1C)C[C@H](O)[C@H]2C(=O)O [FREE AM B, Amphotericin B]
- 29 SURVIVORS (%) (AMB dose 0.5 mg/kg): (0%)
- surviving mice at day 29 post infection (AMB dose 0.5 mg/kg): 0
- 29 SURVIVORS (%) (AMB dose 1.0 mg/kg): (0%)
- surviving mice at day 29 post infection (AMB dose 1.0 mg/kg): 0
- 29 SURVIVORS (%) (AMB dose 1.5 mg/kg): (0%)
- surviving mice at day 29 post infection (AMB dose 1.5 mg/kg): 0
- survivors at 29 days post infection (any dose level): no dose level of free Amphotericin B which produced any survivors
